# Calls of active or inactive are those of the source. The calls are words filed in the database; no cut-off is given here.
# Tests used:
# [1] = target: Calmodulin (Saccharomyces cerevisiae S288c) (UniProt P06787); assay: Inhibition of Myo2-GFP binding to Saccharomyces cerevisiae BY4741 calmodulin at 50 ug/ml by Western blot analysis
# Cryptococcus neoformans [2] = assay: Antifungal activity against Cryptococcus neoformans NYS3-81 after 24 hrs by CLSI method; type: functional; details: NYS3-81, 24 h
# Candida tropicalis = assay: Antifungal activity against Candida tropicalis MR064-H after 24 hrs by CLSI method; type: functional
# Nakaseomyces glabratus = assay: Antifungal activity against Candida glabrata MR084-G12 after 24 hrs by CLSI method; type: functional; details: MR084-G12, 24 h
# Candida albicans [3] = assay: Antifungal activity against Candida albicans SC5314 after 24 hrs by CLSI method; type: functional; details: SC5314, 24 h
# Candida dubliniensis = assay: Antifungal activity against Candida dubliniensis CD1 after 24 hrs by CLSI method; type: functional; details: CD1, 24 h
# Saccharomyces cerevisiae [4] = assay: Antifungal activity against Saccharomyces cerevisiae BY4741 after 24 hrs by CLSI method; type: functional; details: BY4741, 24 h
# Cryptococcus neoformans [5] = assay: Antifungal activity against Cryptococcus neoformans KN99alpha after 24 hrs by CLSI method; type: functional
# Candida albicans [6] = assay: Antifungal activity against Candida albicans ATCC 90028 after 24 hrs by CLSI method; type: functional; details: ATCC 90028, 24 h
# Candida parapsilosis = assay: Antifungal activity against Candida parapsilosis R058-G12 after 24 hrs by CLSI method; type: functional; details: Lodderomyces parapsilosis, R058-G12, 24 h
# Saccharomyces cerevisiae [7] = assay: Antifungal activity against Saccharomyces cerevisiae BY4741 at 8 ug/ml by alexa fluor-phalloidin staining; type: functional, organism-based
# Saccharomyces cerevisiae [8] = assay: Antifungal activity against Saccharomyces cerevisiae BY4741 assessed as inhibition fungal bud formation at 8 ug/ml; type: functional, organism-based
# Candida albicans [9] = assay: Antifungal activity against Candida albicans SC5314 at 16 ug/ml after 2 hrs by alexa fluor-phalloidin staining; type: functional, organism-based
# Candida albicans [10] = assay: Antifungal activity against Candida albicans SC5314 infected in BALB/c mouse assessed as fungal count per gram of kidney at 200 mg/kg, po administered for 7 days prior to fungal infection; type: functional
# Saccharomyces cerevisiae [11] = assay: Antifungal activity against Saccharomyces cerevisiae BY4741 expressing CMD1 at 62 to 125 ug/mL after 3 days by photographic analysis; type: functional, organism-based
# Saccharomyces cerevisiae [12] = assay: Antifungal activity against Saccharomyces cerevisiae BY4741 assessed as appearance of unbudded cells with more than one nucleus at 8 ug/ml; type: functional
# Saccharomyces cerevisiae [13] = assay: Antifungal activity against Saccharomyces cerevisiae BY4741 expressing PKC1 at 62 to 125 ug/mL after 3 days by photographic analysis; type: functional, organism-based
# Sequence of Calmodulin (Saccharomyces cerevisiae S288c) (P06787 whole entry): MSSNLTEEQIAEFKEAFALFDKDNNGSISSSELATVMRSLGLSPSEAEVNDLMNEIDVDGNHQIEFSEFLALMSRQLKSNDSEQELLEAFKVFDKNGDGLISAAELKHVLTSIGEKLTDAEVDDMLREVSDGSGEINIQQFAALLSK
SMILES,inhibition [1],MIC (Cryptococcus neoformans [2]) [µg/mL],MIC (Candida tropicalis) [µg/mL],MIC (Nakaseomyces glabratus) [µg/mL],MIC (Candida albicans [3]) [µg/mL],MIC (Candida dubliniensis) [µg/mL],MIC (Saccharomyces cerevisiae [4]) [µg/mL],MIC (Cryptococcus neoformans [5]) [µg/mL],MIC (Candida albicans [6]) [µg/mL],MIC (Candida parapsilosis) [µg/mL],Activity (Saccharomyces cerevisiae [7]),Activity (Saccharomyces cerevisiae [8]),Activity (Candida albicans [9]),log10cfu (Candida albicans [10]),Activity (Saccharomyces cerevisiae [11]),Activity (Saccharomyces cerevisiae [12]) [%],Activity (Saccharomyces cerevisiae [13])
CN1CCN(CCCN2c3ccccc3Sc3ccc(Cl)cc32)CC1,Active,,,,,,,,,,,,,,,,
CCN(CC)CCOc1ccc(C(=C(Cl)c2ccccc2)c2ccccc2)cc1 [CLOMIPHENE],,64,64,32,32,32,18,64,> 64,64,,,,,,,
CC/C(=C(\c1ccccc1)c1ccc(OCCN(C)C)cc1)c1ccccc1 [TAMOXIFEN],Active,64,32,8,32,16,12,64,32,64,Active,Active,Active,1.5,Active,15,Active

# — ChEMBL document CHEMBL1649551, “Antifungal activity of tamoxifen: in vitro and in vivo activities and mechanistic characterization” (2009)
